Laboratory results from BigSolDB 2.1.

N=C(Nc1ccccc1)Nc1ccccc1
solubility (mole fraction)
Settings	in acetone	in acetonitrile	in ethanol	in ethyl acetate	in isobutanol	in n-butanol	in n-propanol	in toluene
273.15 K	0.0433	0.00828	0.0144	0.0278	0.0124	0.018	0.0159	0.00132
275.65 K	0.0468	0.00909	0.0156	0.03	0.0135	0.0194	0.0174	0.00154
278.15 K	0.0508	0.0101	0.017	0.0325	0.0147	0.021	0.0189	0.00172
280.65 K	0.0554	0.0111	0.0184	0.0347	0.016	0.0227	0.0204	0.00195
283.15 K	0.0599	0.0122	0.0199	0.0372	0.0176	0.0245	0.0222	0.00219
285.65 K	0.0648	0.0134	0.0217	0.0401	0.0189	0.0266	0.0238	0.00249
288.15 K	0.07	0.0147	0.0235	0.0435	0.0208	0.0286	0.0259	0.00282
290.65 K	0.0751	0.0161	0.0253	0.0463	0.0224	0.0306	0.0278	0.00316
293.15 K	0.0802	0.0179	0.0273	0.0496	0.0244	0.0329	0.0301	0.00354
295.65 K	0.0862	0.0197	0.0292	0.053	0.0265	0.0352	0.0324	0.00389
298.15 K	0.0928	0.0214	0.0315	0.0566	0.0286	0.0377	0.035	0.00432
300.65 K	0.0993	0.0234	0.0337	0.0603	0.0311	0.0405	0.0379	0.00476
303.15 K	0.106	0.0254	0.0363	0.0641	0.0333	0.0431	0.0406	0.00528
305.65 K	0.113	0.0278	0.039	0.0678	0.0359	0.0462	0.0435	0.00584
308.15 K	0.12	0.0303	0.0419	0.0719	0.0384	0.0494	0.0465	0.00641
310.65 K	0.128	0.0331	0.0448	0.0763	0.0412	0.0527	0.0499	0.00709
313.15 K	0.137	0.036	0.0483	0.0814	0.0446	0.0562	0.0537	0.00771
